Test results published in patent publication US20180338927A1, “ETHER CELLULOSE DERIVATIVE MICROPARTICLE” (Toray Industries, Inc., priority 2015, published 2018).
Counter-ions that a name gives are not always drawn.

test: Comparison of supported amounts by HPLC (Test Example 8); assay type: physicochemical; conditions: porous Example 6 microparticles (Examples 10 to 15) versus raw material ethyl cellulose powder (Comparative Examples 6 to 11)
Description: The supported amount ratio of a physiologically active substance between microparticles in an example and microparticles in a comparative example supporting the same physiologically active substance was calculated on the basis of the following equation. HPLC measurement was carried out as follows. After weighing 25 mg each of the microparticles in the examples and the comparative examples, the microparticles were respectively put in 50-mL volumetric flasks. Each type of microparticles was completely dissolved in 5 mL of ethanol added, and the solution was diluted with deionized water added and passed through a 0.45-μm filter to provide an HPLC sample. The sample was measured under the same conditions as for Test Example 5.

Row | Compound | Support amount ratio (=example/comparative example)
1 | CC(=O)Nc1ccc(O)cc1 [Acetaminophen, acetaminophen] | 1.4
2 | CC(C)Cc1ccc(C(C)C(=O)O)cc1 (stereo not drawn) [Ibuprofen, ibuprofen] | 1.2
3 | Cn1c(=O)c2[nH]cnc2n(C)c1=O [Theophylline, theophylline] | 1.2
4 | Cc1ncc(C[n+]2csc(CCO)c2C)c(N)n1 [Thiamine hydrochloride, thiamine hydrochloride] | 10.7
5 | O=C(O)c1ccccc1O [Salicylic acid, salicylic acid] | 1.6
6 | C=C[C@H]1C[N@@]2CC[C@H]1C[C@H]2[C@H](O)c1ccnc2ccc(OC)cc12 [Quinine hydrochloride dihydrate, quinine hydrochloride dihydrate] | 1.8
